For 45 molecules, IC50 results are on record in US9776991B2, “Thienomethylpiperazine derivatives as inhibitors of soluble epoxide hydrolase” (SANOFI, priority 2013, dated 2017).

Sequence of recombinant sEH (soluble epoxide hydrolase, EPHX2) (P34913 whole entry): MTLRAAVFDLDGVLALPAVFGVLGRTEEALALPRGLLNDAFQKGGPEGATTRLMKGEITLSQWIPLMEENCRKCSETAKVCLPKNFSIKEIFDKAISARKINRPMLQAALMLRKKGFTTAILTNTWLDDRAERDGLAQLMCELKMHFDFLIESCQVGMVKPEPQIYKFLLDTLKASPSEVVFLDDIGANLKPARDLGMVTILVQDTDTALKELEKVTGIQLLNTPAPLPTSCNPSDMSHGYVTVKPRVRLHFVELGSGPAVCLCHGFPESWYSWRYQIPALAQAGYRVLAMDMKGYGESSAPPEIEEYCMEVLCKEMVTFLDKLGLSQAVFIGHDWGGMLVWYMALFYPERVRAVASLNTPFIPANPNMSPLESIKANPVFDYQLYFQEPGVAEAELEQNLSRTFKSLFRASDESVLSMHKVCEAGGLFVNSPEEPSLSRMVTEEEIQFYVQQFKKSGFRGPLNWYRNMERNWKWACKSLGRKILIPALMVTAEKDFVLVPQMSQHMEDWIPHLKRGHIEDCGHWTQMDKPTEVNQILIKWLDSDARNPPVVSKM

The assay deals with recombinant sEH (soluble epoxide hydrolase, EPHX2) (Homo sapiens (Human), UniProt P34913). The assay is described as follows: biochemical fluorometric sEH inhibition assay with Phome substrate. As to conditions: recombinant sEH purified from Sf9 insect cells, 2 nM sEH, 5 μM Phome, 60 minutes at 30° C. Summed up:
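Human sEH expressed in Sf9 cells (2 nM final) pre-incubated 15 min at 30 °C with compound (0.0001-10 μM), then 5 μM Phome added for 60 min at 30 °C in 25 mM Hepes with 0.01% albumin. Fluorescent 6-methoxy-2-naphthaldehyde read before substrate addition and at the end; IC50 from % inhibition.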
`O=C(NCc1ccc(Cl)cc1Cl)c1ccc(CN2CCN(C3CCCC3)C(=O)C2)s1` [Example 84]: the half-inhibitory concentration (IC50) is 2.35 nM.

Regarding `O=C(NCc1ccc(Cl)cc1Cl)c1ccc(CN2CCN(c3ccc(O)nn3)CC2)s1` [Example 50], the concentration for half-maximal inhibition (IC50) came out at 2.67 nM.

Regarding `Cc1cc(=O)oc(C)c1C(=O)N1CCN(Cc2ccc(C(=O)NCc3ccc(C#N)cc3Cl)s2)CC1` [Example 80], the half-maximal inhibitory concentration (IC50) came out at 2.53 nM.

For `O=C(NCc1ccccc1OC(F)(F)F)c1ccc(CN2CCN(c3nccs3)C(=O)C2)s1` [Example 47], the IC50 is 2.69 nM.

Take `CC(C)CCNC(=O)c1ccc(CN2CCN(C(=O)[C@@H]3C[C@H]3c3ccccc3)CC2)s1` [Example 5]: the half-maximal inhibitory concentration (IC50) came to 0.432 nM.

Regarding `CC1(C)SCN[C@H]1C(=O)N1CCN(Cc2ccc(C(=O)NCc3ccc(Cl)cc3Cl)s2)CC1` [Example 103], the half-inhibitory concentration (IC50) is 2.32 nM.

Turning to `O=C(NCc1ccccc1OC(F)(F)F)c1ccc(CN2CCN(C(=O)c3ccccn3)CC2)s1` [Example 121], the IC50 stood at 1.68 nM.

As to `CC(C(=O)N1CCN(Cc2ccc(C(=O)NCc3ccccc3C(F)(F)F)s2)CC1)c1ccccc1` (stereo not drawn) [Example 98], the 50% inhibitory concentration (IC50) came out at 1.52 nM.

On to `CC1(C)CC[C@@H](C(=O)N2CCN(Cc3ccc(C(=O)NCc4ccccc4OC(F)(F)F)s3)CC2)N1` [Example 86], for which the IC50 amounted to 2.38 nM.

Take `CC(C(=O)N1CCN(Cc2ncc(C(=O)NCc3ccc(Cl)cc3Cl)s2)CC1)N1CCCC1=O` (stereo not drawn) [Example 169]: the IC50 was 8.76 nM.

As for `CC(C(=O)N1CCN(Cc2ncc(C(=O)NCc3ccc(Cl)cc3Cl)s2)CC1)N(C)C` (stereo not drawn) [Example 177, 2-[4-(2-Dimethylamino-propionyl)-piperazin-1-ylmethyl]-thiazole-5-carboxylic acid 2,4-dichloro-benzylamide], the IC50 was 91.1 nM.

Turning to `CNC(=O)c1cccnc1N1CCN(Cc2ccc(C(=O)NCc3ccc(OC)cc3OC(F)(F)F)s2)CC1` [Example 74], the IC50 came to 2.66 nM.

As for `Cc1cccc(C(=O)N2CCN(Cc3ncc(C(=O)NCc4ccc(Cl)cc4Cl)s3)CC2)n1` [Example 174], the IC50 was 14.8 nM.

Consider `NC1(C(=O)N2CCN(Cc3ccc(C(=O)NCc4ccccc4OC(F)(F)F)s3)CC2)CCCCC1` [Example 157], for which the IC50 is 2.08 nM.

In the case of `O=C(NCc1ccccc1OC(F)(F)F)c1ccc(CN2CCN(C(=O)c3ccc[nH]c3=O)CC2)s1` [Example 66], the half-inhibitory concentration (IC50) was determined as 1.25 nM.

Take `COCCOCC(=O)N1CCN(Cc2ccc(C(=O)NCc3ccccc3OC(F)(F)F)s2)CC1` [Example 83]: the 50% inhibitory concentration (IC50) was 2.37 nM.

Consider `Cc1cc(=O)oc(C)c1C(=O)N1CCN(Cc2ccc(C(=O)NCc3ccc(C(F)(F)F)cc3)s2)CC1` [Example 33], for which the IC50 stood at 0.906 nM.

On to `O=C(NCc1ccc(Cl)cc1Cl)c1cnc(CN2CCN(C(=O)CN3CCOC3=O)CC2)s1` [Example 193], for which the IC50 was 15.2 nM.

Regarding `CN1CC(C(=O)N2CCN(Cc3ccc(C(=O)NCc4ccccc4OC(F)(F)F)s3)CC2)CC1=O` (stereo not drawn) [Example 44], the IC50 is 2.72 nM.

For `O=C(NCc1ccccc1C(F)(F)F)c1ccc(CN2CCN(C(=O)Cc3cccc(C(F)(F)F)c3)CC2)s1` [Example 31], the IC50 came out at 0.758 nM.

Take `O=C(NCc1ccccc1OC(F)(F)F)c1ccc(CN2CCN(c3ccc(CO)cn3)CC2)s1` [Example 87]: the IC50 was 2.41 nM.

On to `O=C(NCc1ccc(Cl)cc1Cl)c1cnc(CN2CCN(C(=O)C3CC3)CC2)s1` [Example 171], for which the IC50 came to 15.8 nM.

As for `CC(C)CCNC(=O)c1ccc(CN2CCN(C(=O)c3ccnn3C(F)F)CC2)s1` [Example 13], the IC50 is 2.98 nM.

For `COc1ccc(OC)c(C(=O)N2CCN(Cc3ccc(C(=O)NCc4ccccc4OC(F)(F)F)s3)CC2)n1` [Example 67], the half-maximal inhibitory concentration (IC50) turned out to be 1.21 nM.

For the molecule `COc1ccc(CNC(=O)c2ccc(CN3CCN(C(=O)c4c(C)cc(=O)oc4C)CC3)s2)c(C(F)(F)F)c1` [Example 9], the 50% inhibitory concentration (IC50) is 3.06 nM.

Turning to `C[C@@H](O)C(=O)N1CCN(Cc2ccc(C(=O)N(Cc3ccccc3)OC(F)(F)F)s2)CC1` [Example 1], the IC50 is 0.122 nM.

As to `O=C(NCc1ccccc1OC(F)(F)F)c1ccc(CN2CCN(c3cnccn3)CC2)s1` [Example 73], the IC50 came out at 2.59 nM.

As for `Cn1ncc(Br)c1C(=O)N1CCN(Cc2ccc(C(=O)NCc3ccccc3C(F)(F)F)s2)CC1` [Example 52], the concentration for half-maximal inhibition (IC50) worked out at 0.955 nM.

`CC[C@@H](O)C(=O)N1CCN(Cc2ccc(C(=O)NCc3ccccc3OC(F)(F)F)s2)CC1` [Example 96]: the half-maximal inhibitory concentration (IC50) came to 1.57 nM.

Take `O=C(NCc1ccccc1OC(F)(F)F)c1ccc(CN2CCN(C(=O)C3CCOC3)CC2)s1` (stereo not drawn) [Example 55]: the IC50 is 1.05 nM.

Consider `COCC1(C(=O)N2CCN(Cc3ccc(C(=O)NCc4ccccc4OC(F)(F)F)s3)CC2)CC1` [Example 68], for which the 50% inhibitory concentration (IC50) was 1.19 nM.

Consider `CN1CCC[C@H]1C(=O)N1CCN(Cc2ncc(C(=O)NCc3ccc(Cl)cc3Cl)s2)CC1` [Example 184], for which the IC50 is 115 nM.

Consider `COCCC(=O)N1CCN(Cc2ncc(C(=O)NCc3ccc(Cl)cc3Cl)s2)CC1` [Example 173], for which the IC50 amounted to 33.4 nM.

Regarding `O=C(NCc1ccc(Cl)cc1Cl)c1cnc(CN2CCN(C(=O)CN3C[C@@H](O)CC3=O)CC2)s1` [Example 210], the half-maximal inhibitory concentration (IC50) turned out to be 52.4 nM.

With `O=C(NCc1ccccc1OC(F)(F)F)c1ccc(CN2CCN(C3CCS(=O)(=O)C3)CC2)s1` (stereo not drawn) [Example 85], the IC50 came to 2.44 nM.

Regarding `O=C(NCc1ccccc1OC(F)(F)F)c1ccc(CN2CCN(C(=O)N3CCCC3)CC2)s1` [Example 19], the IC50 amounted to 0.695 nM.

In the case of `Cc1cccnc1N1CCN(Cc2ccc(C(=O)NCc3ccc(Cl)cc3Cl)s2)CC1=O` [Example 105], the half-maximal inhibitory concentration (IC50) stood at 2.33 nM.

Turning to `CCC(C)(O)C(=O)N1CCN(Cc2ccc(C(=O)NCc3ccccc3OC(F)(F)F)s2)CC1` (stereo not drawn) [Example 95], the half-inhibitory concentration (IC50) stood at 1.51 nM.

For `O=C(NCc1ccccc1C(F)(F)F)c1ccc(CN2CCN(C(=O)Cc3ccccc3Cl)CC2)s1` [Example 3], the IC50 turned out to be 0.407 nM.

On to `Cc1noc(C)c1CC(=O)N1CCN(Cc2ncc(C(=O)NCc3ccc(Cl)cc3Cl)s2)CC1` [Example 165], for which the concentration for half-maximal inhibition (IC50) came out at 9.61 nM.

As to `CSCCC(=O)N1CCN(Cc2ncc(C(=O)NCc3ccc(Cl)cc3Cl)s2)CC1` [Example 164], the IC50 was 11.4 nM.

As for `O=C(NCc1ccccc1C(F)(F)F)c1ccc(CN2CCN(C(=O)COc3ccccc3)CC2)s1` [Example 17], the IC50 is 0.699 nM.

On to `CN[C@H](C(=O)N1CCN(Cc2ccc(C(=O)NCc3ccccc3OC(F)(F)F)s2)CC1)[C@@H](C)O` [Example 41], for which the 50% inhibitory concentration (IC50) is 2.75 nM.

As to `Cc1cc(C(=O)NCCC(C)(C)C)sc1CN1CCN(C(=O)c2c(C)cc(=O)oc2C)CC1` [Example 159], the IC50 was 0.8 nM.

In the case of `CC(C)(O)CC(=O)N1CCN(Cc2ncc(C(=O)NCc3ccc(Cl)cc3Cl)s2)CC1` [Example 185], the half-maximal inhibitory concentration (IC50) turned out to be 13.8 nM.

A word on the IC50: it is the midpoint of a concentration-inhibition curve.
